From article PMC4819188, “BitterX: a tool for understanding bitter taste in humans” (Scientific Reports, 2016)
Read-outs that look alike come from different tables or passages of the source.

How the values were obtained:
Assay in all cases: calcium imaging (Fluo-4) dose-response, HEK293T
Format in all cases: cell-based
TAS2R39 = molecular target: T1, TAS2R39 (Homo sapiens, UniProt P59534)
T1 construct: full ORF from human genomic DNA with N-terminal rhodopsin tag (first 20 residues), pCI; HEK293T with Galpha16/gust44
T1 sequence (P59534 1-338): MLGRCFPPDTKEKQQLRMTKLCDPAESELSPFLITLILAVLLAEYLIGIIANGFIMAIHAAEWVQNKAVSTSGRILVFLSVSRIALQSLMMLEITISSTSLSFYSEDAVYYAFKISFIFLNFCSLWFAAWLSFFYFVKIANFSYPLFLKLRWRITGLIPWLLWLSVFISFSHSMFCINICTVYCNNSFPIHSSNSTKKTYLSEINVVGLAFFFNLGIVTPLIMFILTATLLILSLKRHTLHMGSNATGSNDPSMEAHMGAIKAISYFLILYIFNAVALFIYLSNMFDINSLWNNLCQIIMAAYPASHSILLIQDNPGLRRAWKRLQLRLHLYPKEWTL
Description: calcium imaging (Fluo-4) dose-response, HEK293T on TAS2R39

TAS2R14 = molecular target: T2, TAS2R14 (Homo sapiens, UniProt Q9NYV8)
T2 construct: full ORF from human genomic DNA with N-terminal rhodopsin tag (first 20 residues), pCI; HEK293T with Galpha16/gust44
T2 sequence (Q9NYV8 1-317): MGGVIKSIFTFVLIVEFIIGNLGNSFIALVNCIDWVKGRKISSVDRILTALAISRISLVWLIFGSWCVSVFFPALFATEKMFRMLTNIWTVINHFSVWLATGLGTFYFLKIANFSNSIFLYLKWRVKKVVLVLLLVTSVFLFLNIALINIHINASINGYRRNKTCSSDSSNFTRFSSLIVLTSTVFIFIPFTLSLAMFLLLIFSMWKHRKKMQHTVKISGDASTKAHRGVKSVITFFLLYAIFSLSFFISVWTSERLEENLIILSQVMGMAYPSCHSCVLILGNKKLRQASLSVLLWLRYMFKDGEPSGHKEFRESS
Description: calcium imaging (Fluo-4) dose-response, HEK293T on TAS2R14

TAS2R10 = molecular target: T3, TAS2R10 (Homo sapiens, UniProt Q9NYW0)
T3 construct: full ORF from human genomic DNA with N-terminal rhodopsin tag (first 20 residues), pCI; HEK293T with Galpha16/gust44
T3 sequence (Q9NYW0 1-307): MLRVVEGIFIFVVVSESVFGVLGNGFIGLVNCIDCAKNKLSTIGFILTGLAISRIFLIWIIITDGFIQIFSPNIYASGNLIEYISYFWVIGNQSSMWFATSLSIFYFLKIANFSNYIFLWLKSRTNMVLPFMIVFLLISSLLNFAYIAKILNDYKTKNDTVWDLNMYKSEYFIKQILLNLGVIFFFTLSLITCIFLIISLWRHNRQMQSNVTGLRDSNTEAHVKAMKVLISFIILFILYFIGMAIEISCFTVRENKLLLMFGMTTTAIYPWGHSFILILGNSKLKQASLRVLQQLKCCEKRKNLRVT
Description: calcium imaging (Fluo-4) dose-response, HEK293T on TAS2R10

TAS2R46 = molecular target: T4, TAS2R46 (Homo sapiens, UniProt P59540)
T4 construct: full ORF from human genomic DNA with N-terminal rhodopsin tag (first 20 residues), pCI; HEK293T with Galpha16/gust44
T4 sequence (P59540 1-309): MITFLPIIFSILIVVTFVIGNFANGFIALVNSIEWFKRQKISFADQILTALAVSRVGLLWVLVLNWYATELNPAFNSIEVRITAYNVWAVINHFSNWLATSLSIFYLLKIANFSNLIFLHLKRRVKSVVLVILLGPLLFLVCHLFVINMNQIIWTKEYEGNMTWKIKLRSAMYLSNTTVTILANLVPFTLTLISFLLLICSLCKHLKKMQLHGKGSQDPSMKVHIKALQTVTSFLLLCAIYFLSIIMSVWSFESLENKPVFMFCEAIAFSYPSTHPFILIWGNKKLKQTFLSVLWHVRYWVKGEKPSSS
Description: calcium imaging (Fluo-4) dose-response, HEK293T on TAS2R46

TAS2R4 = molecular target: T5, TAS2R4 (Homo sapiens, UniProt Q9NYW5)
T5 construct: full ORF from human genomic DNA with N-terminal rhodopsin tag (first 20 residues), pCI; HEK293T with Galpha16/gust44
T5 sequence (Q9NYW5 1-299): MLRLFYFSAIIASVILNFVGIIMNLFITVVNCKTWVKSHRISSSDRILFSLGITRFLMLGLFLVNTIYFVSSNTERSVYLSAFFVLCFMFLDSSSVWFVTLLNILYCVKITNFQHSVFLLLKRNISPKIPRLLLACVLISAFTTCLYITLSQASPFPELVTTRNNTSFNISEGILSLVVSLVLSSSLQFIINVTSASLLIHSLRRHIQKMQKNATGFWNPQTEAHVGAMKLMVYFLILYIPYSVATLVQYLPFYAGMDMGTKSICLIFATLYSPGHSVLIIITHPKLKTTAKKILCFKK
Description: calcium imaging (Fluo-4) dose-response, HEK293T on TAS2R4

TAS2R41 = molecular target: T6, TAS2R41 (Homo sapiens, UniProt P59536)
T6 construct: full ORF from human genomic DNA with N-terminal rhodopsin tag (first 20 residues), pCI; HEK293T with Galpha16/gust44
T6 sequence (P59536 1-307): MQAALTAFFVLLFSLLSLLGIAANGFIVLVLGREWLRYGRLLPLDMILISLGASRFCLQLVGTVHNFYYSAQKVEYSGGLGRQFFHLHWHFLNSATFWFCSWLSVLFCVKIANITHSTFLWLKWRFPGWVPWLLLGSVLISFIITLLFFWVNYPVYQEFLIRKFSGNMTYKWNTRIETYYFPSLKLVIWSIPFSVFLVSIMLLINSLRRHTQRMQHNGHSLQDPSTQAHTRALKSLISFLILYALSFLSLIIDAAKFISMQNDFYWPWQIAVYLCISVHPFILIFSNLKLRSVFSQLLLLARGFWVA
Description: calcium imaging (Fluo-4) dose-response, HEK293T on TAS2R41

TAS2R16 = molecular target: T7, TAS2R16 (Homo sapiens, UniProt Q9NYV7)
T7 construct: full ORF from human genomic DNA with N-terminal rhodopsin tag (first 20 residues), pCI; HEK293T with Galpha16/gust44
T7 sequence (Q9NYV7 1-291): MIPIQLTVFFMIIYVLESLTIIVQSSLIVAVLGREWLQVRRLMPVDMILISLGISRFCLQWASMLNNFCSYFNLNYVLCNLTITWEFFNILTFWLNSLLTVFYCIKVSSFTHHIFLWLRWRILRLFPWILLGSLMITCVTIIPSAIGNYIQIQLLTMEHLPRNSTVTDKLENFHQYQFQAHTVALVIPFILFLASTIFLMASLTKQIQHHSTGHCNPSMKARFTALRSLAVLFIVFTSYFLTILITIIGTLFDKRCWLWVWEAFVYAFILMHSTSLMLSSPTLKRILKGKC
Description: calcium imaging (Fluo-4) dose-response, HEK293T on TAS2R16

What does the source list for `COc1cc(/C=C\C(=O)O)cc(S(=O)(=O)Nc2ccc(C(=O)O)cc2)c1OC` [compound 5, 5]?
EC50 (TAS2R39): 84.1 µM; EC50 (TAS2R14): 232 µM; EC50 (TAS2R10): 4000 µM; EC50 (TAS2R46): 138 µM

How did the EC50 (TAS2R14) turn out when `c1ccc(CC2=NCCN2)cc1` [ww3] was run?
Its EC50 is 1280 µM.

Which EC50 (TAS2R4) does the source give for `N=C(N)NC(=N)Nc1ccccc1` [compound 1, 1] here?
Its EC50 is 3710 µM.

What about the EC50 (TAS2R41) of the same compound?
Its EC50 is 3320 µM.

And the EC50 (TAS2R14)?
The EC50 was 760 µM.

What about the EC50 (TAS2R10) of the same compound?
Its EC50 is 1540 µM.

What does the source list for `NC(=O)c1ccccc1O` [compound 2, 2]?
EC50 (TAS2R16): 489 µM; EC50 (TAS2R14; read-out: Log EC50 (converted)): 356 µM; EC50 (TAS2R10; read-out: Log EC50 (converted)): 9750 µM

`COc1ccccc1C=O` [compound 4, 4] was tested. Which EC50 (TAS2R14; read-out: Log EC50 (converted)) did it give?
Its EC50 is 1230 µM.

And the EC50 (TAS2R10; read-out: Log EC50 (converted))?
Its EC50 is 4000 µM.
